Source: article PMC8952364, “Polyphenols as Inhibitors of Antibiotic Resistant Bacteria—Mechanisms Underlying Rutin Interference with Bacterial Virulence” (Pharmaceuticals, 2022)
Converted amounts (≈) assume the structure as drawn.

Key:
[1] = test system: P. aeruginosa IBRS P001 protease production; experiment: Protease assay (azocasein); format: cell-based, Pseudomonas aeruginosa; conditions: 0.25 mg/mL (0.5 MIC), compared to the control
Description: The impact of rutin on the proteolytic activity of P. aeruginosa IBRS P001 was measured using azocasein as a substrate. […] Samples were centrifuged at 9660 g, room temperature, for 10 min (Heraeus biofuge stratos centrifuge, Thermo Electron Corporation, Waltham, MA, USA). Afterwards, the supernatant was mixed with azocasein (2%, SigmaAldrich, Germany) and incubated at 37 °C for 45 min. The reaction was stopped using 10% trichloroacetic acid and centrifuged at 9660× g, RT for 10 min. After centrifugation, the absorbance of the supernatants was measured at 440 nm and protease production in the treated sample calculated compared to the control (100% production).

[2] = test system: P. aeruginosa IBRS P001 biofilm; experiment: Crystal violet antibiofilm assay (biofilm formation); format: cell-based, Pseudomonas aeruginosa; conditions: 24 h
How it was run: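 After incubation, biofilms were washed with PBS (pH 7.4), methanol-fixed and stained 30 min with 0.1% crystal violet. Stain was solubilised in 96% ethanol and read at 620 nm. Values are biofilm-forming capacity (%) relative to control.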

MRSA IBRS MRSA 011 = experiment: Bacterial adhesion to HaCaT cells; format: cell-based, Staphylococcus aureus
Description: HaCaT cells were grown until confluence in 24-well plates with an adhesive bottom. The medium was removed and DMEM without FBS containing the rutin (MIC and 0.5 MIC) was added. The samples were incubated at 37 °C for 15 min, and bacteria (P. aeruginosa IBRS P001 and MRSA IBRS MRSA 011) were added. After incubation at 37 °C for 1 h, the cells were washed three times with DMEM without FBS and lyzed with 1 mL of 1% (v/v) Tween-20 (SigmaAldrich, Germany) at 37 °C for 30 min. Afterwards, dilutions of the bacterial suspension in each well were made and seeded on Plate Count Agar plates. The number of CFU was determined after incubation at 37 °C for 18 h, and the percentage of adhered bacterial cells was calculated following the equation:% (adhesion relative to the control) = 100 × CFU (treated)/CFU (control)
With CFU (treated) representing the number of CFUs after the treatment of cells with rutin and CFU (control) representing the number of bacterial CFUs in the untreated sample. The solvent treated sample was used as the control.

P. aeruginosa IBRS P001 = experiment: Catheter biofilm eradication model (24 h old biofilm); format: cell-based, Pseudomonas aeruginosa
Description: For the catheter biofilm eradication assay, P. aeruginosa and MRSA were incubated in TSB with 2% glucose with 1 cm long catheters in 24-well plates at 37 °C for 24 h. […] Subsequently, the catheters were washed and treated, as described above.

E. coli IMD989 = experiment: Antimicrobial microdilution assay (MIC/MBC); format: cell-based, Escherichia coli; conditions: Escherichia coli, IMD989
How it was run: (§1)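 Broth microdilution: 0.5 McFarland suspensions, diluted twenty-fold, were mixed 1:10 with polyphenol dilutions (0.0039–1 mg/mL) and incubated 24 h at 37 °C.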

E. coli IBRS E003 = experiment: Antimicrobial microdilution assay (MIC/MBC); format: cell-based, Escherichia coli; conditions: Escherichia coli, IBRSE003
How it was run: as §1

HaCaT cells = experiment: Cytotoxicity in HaCaT cell line (crystal violet assay); format: cell-based, human; conditions: Homo sapiens, HaCaT, 24 h, read-out: IC50 (compound concentration that inhibited 50% of the cell growth)
How it was run: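 HaCaT keratinocytes seeded 1 × 10^4 cells/well 24 h before treatment, then exposed to polyphenols for 24 h. Viable cells stained with crystal violet, absorbance at 590 nm. IC50 in μg/mL, triplicate with three readings each, mean ± SD.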

A. xylosoxidans 37F = experiment: Antimicrobial microdilution assay (MIC/MBC); format: cell-based, Achromobacter xylosoxidans; conditions: Achromobacter xylosoxidans, 37F
How it was run: as §1

[3] = test system: P. aeruginosa IBRS P001 biofilm; experiment: Biofilm MTT assay (biofilm formation); format: cell-based, Pseudomonas aeruginosa; conditions: rutin MIC, co-incubation 24 h
Description: The impact of rutin on P. aeruginosa IBRS P001 biofilm formation was determined as previously described by estimating the metabolic activity of microbial cells using an MTT assay. […] The supernatants were then ejected and the biofilms washed with PBS. MTT reagent (200 μL, 0.5 mg/mL) was added and the plate was incubated at 37 °C in the dark for 2 h. The resulting dye was dissolved in DMSO and the absorbance was measured at 570 nm in a microtiter plate reader Multiskan™ FC Microplate Photometer, Thermo Scientific™. The inhibition percentage of biofilm cell viability was calculated:%Inhibition = [(A570control − A570sample)/A570control] × 100
With A570control representing the absorbance of untreated sample, and A570sample representing the absorbance of the rutin treated sample. A solvent-treated sample was used as the control.

[4] = subcultivation, 24 h at 37 °C, read-out: MBC

`C[C@@H]1O[C@@H](OC[C@H]2O[C@@H](Oc3c(-c4ccc(O)c(O)c4)oc4cc(O)cc(O)c4c3=O)[C@H](O)[C@@H](O)[C@@H]2O)[C@H](O)[C@H](O)[C@H]1O` [Rutin, rutin] was tested, and the “decrease of protease production” value [1] was “more than 50%”, the “reduction of biofilm formation (biomass), in words” value ([2]; MIC and sub-MIC, crystal violet, Figure 1) was “significant (****, p < 0.0001) reduction” and the “biofilm biomass formed after treatment” value ([2]; MIC, 500 µg/mL) was 6%. For the same compound, the inhibition at 500 µg/mL ([2]; Pseudomonas aeruginosa, IBRSP001BIOFILM, 500 µg/mL (MIC)) was 94%, the inhibition at 250 µg/mL (MRSA IBRS MRSA 011; Staphylococcus aureus, MRSA, Keratinocyte, read-out: reduction of CFU adhered to human keratinocytes (inhibition)) was 19% and the “reduction of CFU adhered to human keratinocytes” value (MRSA IBRS MRSA 011; rutin MIC) was 63%. For the same compound, the catheter biofilm eradicated (P. aeruginosa IBRS P001; 2 MBC, 24 h old biofilm) was 73.7%, the “biofilm cells remained viable after the treatment” value (P. aeruginosa IBRS P001; 24 h old catheter biofilm, concentration not printed (MBC-4MBC tested, probably 4 MBC)) was 10.9% and the MIC (E. coli IMD989; 37 °C, 24 h, read-out: MIC) was 1000 µg/mL (≈ 1640 µM). For the same compound, the MBC (E. coli IMD989; [4]) was 1000 µg/mL (≈ 1640 µM), the MIC (E. coli IBRS E003; 37 °C, 24 h, read-out: MIC) was over 1000 µg/mL and the MBC (E. coli IBRS E003; [4]) was over 1000 µg/mL. It also gave an IC50 (HaCaT cells) of over 1000 µg/mL, an MIC (A. xylosoxidans 37F; 37 °C, 24 h, read-out: MIC) of 500 µg/mL (≈ 819 µM) and an MBC (A. xylosoxidans 37F; [4]) of 1000 µg/mL (≈ 1640 µM). For the same compound, the “reduction of metabolic activity of cells forming the biofilm” value [3] was 88%.
